# Experiments:
# [1] = test system: CAR-NK cells (effector) with MV-4-11 target cells; test: CAR-NK cell apoptosis assay, annexin V staining and flow cytometry; format: cell-based, human; conditions: clinically-relevant concentration, morphine 25 ng/mL, two-hour incubation of effector cells; data only in FIG. 1
# [2] = test system: primary human NK cells (effector) with MV-4-11 target cells; test: Primary human NK cell apoptosis assay, annexin V staining and flow cytometry; format: cell-based; conditions: clinically-relevant concentration, morphine 25 ng/mL, two-hour incubation of effector cells; data only in FIG. 1
# [3] = test system: primary human natural killer (NK) cells; conditions: cited from earlier work
Structure (SMILES),effect on CAR-NK cell function (ability to induce apoptosis in MV-4-11 cells) [1],effect on primary human NK cell function (ability to induce apoptosis in MV-4-11 cells) [2],primary human NK cell cytotoxicity after preincubation with opioid [3]
CN1CC[C@]23c4c5ccc(O)c4O[C@H]2[C@@H](O)C=C[C@H]3[C@H]1C5 [morphine],functionally inhibited,functionally inhibited,reduced
"C[C@@H](NC(=O)[C@@H](N)Cc1ccc(O)cc1)C(=O)NCC(=O)N(C)[C@@H](Cc1ccccc1)C(=O)NCCO [DAMGO, [D-Ala2, N-Me-Phe4, Gly5-ol]-enkephalin]",,,reduced
CCC(=O)C(CC(C)N(C)C)(c1ccccc1)c1ccccc1 (centres unmarked) [methadone],,,reduced
